{"source": "patent US20260345619A1", "about": "(Principia Biopharma Inc., priority 2023, published 2026)", "key": {"[1]": {"experiment": "Time to LOAC post-randomization (Cox regression, Kaplan-Meier)", "format": "in vivo, human", "excerpt": "Time to LOAC post-randomization was to be analyzed using a Cox regression model with treatment (Cox 1972), baseline IgE strata, and region (pooled country) as covariates. The Kaplan-Meier (KM) method was to be used to estimate the probabilities of the event at specific time points for each treatment group (Kaplan and Meier 1958). Nominal p-value from log-rank test stratified by baseline IgE strata and region was also to be provided."}, "BTK": {"system": "BTK", "conditions": "preclinical assays; cited from earlier work"}, "[2]": {"experiment": "Participants with ≥2, ≥3, ≥4, ≥5 additional reliever puffs of salbutamol/albuterol or levosalbutamol/levalbuterol", "format": "in vivo, human", "conditions": "for Number of participants with ≥2 additional reliever puffs vs baseline on 2 consecutive days / Number of participants with ≥3 additional reliever puffs vs baseline on 2 consecutive days / Number of participants with ≥4 additional reliever puffs vs baseline on 2 consecutive days / Number of participants with ≥5 additional reliever puffs vs baseline on 2 consecutive days / Participants with ≥2 additional reliever puffs vs baseline on 2 consecutive days, figure in parentheses (share) / Participants with ≥3 additional reliever puffs vs baseline on 2 consecutive days, figure in parentheses (share) / Participants with ≥4 additional reliever puffs vs baseline on 2 consecutive days, figure in parentheses (share) / Participants with ≥5 additional reliever puffs vs baseline on 2 consecutive days, figure in parentheses (share): 12-week treatment period", "procedure": "An analysis was performed on the number of participants with ≥2, ≥3, ≥4, and ≥5 additional reliever puffs of salbutamol/albuterol or levosalbutamol/levalbuterol compared with baseline on 2 consecutive days during the treatment period, to assess increase in reliever medication during 12-week treatment period."}, "[3]": {"conditions": "400 mg BID cohort, N = 32, mITT"}, "[4]": {"conditions": "400 mg TID cohort, N = 64, mITT"}}}
{"smiles": "CC(C)(C=C(C#N)C(=O)N1CCC[C@@H](n2nc(-c3ccc(Oc4ccccc4)cc3F)c3c(N)ncnc32)C1)N1CCN(C2COC2)CC1", "note": "(mixture of isomers) [rilzabrutinib, (R)-2-[3-[4-amino-3-(2-fluoro-4-phenoxy-phenyl)pyrazolo[3,4-d]pyrimidin-1-yl]piperidine-1-carbonyl]-4-methyl-4-[4-(oxetan-3-yl)piperazin-1-yl]pent-2-enenitrile]", "values": [{"measurement": "Number of participants censored", "setting": "[1]; [3]", "value": 20}, {"measurement": "Number of participants with LOAC (time-to-LOAC analysis)", "setting": "[1]; [3]", "value": 12}, {"measurement": "Percentage of participants censored", "setting": "[1]; [3]", "value": "(62.5)"}, {"measurement": "Percentage of participants with LOAC (time-to-LOAC analysis)", "setting": "[1]; [3]", "value": "(37.5)"}, {"measurement": "Probability of LOAC at Week 4", "setting": "[1]; 400 mg BID cohort, mITT, 95% CI (0.059, 0.309)", "value": 0.161}, {"measurement": "Probability of LOAC at Week 9", "setting": "[1]; 400 mg BID cohort, mITT, 95% CI (0.125, 0.429)", "value": 0.265}, {"measurement": "Probability of LOAC at Week 12", "setting": "[1]; 400 mg BID cohort, mITT, 95% CI (0.243, 0.607)", "value": 0.432}, {"measurement": "HR vs. placebo, time to LOAC", "setting": "[1]; 400 mg BID cohort, mITT, 95% CI (0.352, 1.595)", "value": 0.750}, {"measurement": "Q1 of time to LOAC", "setting": "[1]; 400 mg BID cohort, mITT, 95% CI (19.0, 84.0)", "value": 55.0, "unit": "days"}, {"measurement": "Number of participants censored", "setting": "[1]; [4]", "value": 52}, {"measurement": "Number of participants with LOAC (time-to-LOAC analysis)", "setting": "[1]; [4]", "value": 12}, {"measurement": "Percentage of participants censored", "setting": "[1]; [4]", "value": "(81.3)"}, {"measurement": "Percentage of participants with LOAC (time-to-LOAC analysis)", "setting": "[1]; [4]", "value": "(18.8)"}, {"measurement": "Probability of LOAC at Week 4", "setting": "[1]; 400 mg TID cohort, mITT, 95% CI (0.001, 0.080)", "value": 0.017}, {"measurement": "Probability of LOAC at Week 9", "setting": "[1]; 400 mg TID cohort, mITT, 95% CI (0.077, 0.261)", "value": 0.156}, {"measurement": "Probability of LOAC at Week 12", "setting": "[1]; 400 mg TID cohort, mITT, 95% CI (0.117, 0.325)", "value": 0.211}, {"measurement": "HR vs. placebo, time to LOAC", "setting": "[1]; 400 mg TID cohort, mITT, 95% CI (0.327, 1.408)", "value": 0.679}, {"measurement": "binding to BTK over time", "setting": "BTK", "value": "persisted"}, {"measurement": "Number of participants with ≥2 additional reliever puffs vs baseline on 2 consecutive days", "setting": "[2]; 400 mg BID, N = 32", "value": 6, "unit": "participants"}, {"measurement": "Number of participants with ≥3 additional reliever puffs vs baseline on 2 consecutive days", "setting": "[2]; 400 mg BID, N = 32", "value": 3, "unit": "participants"}, {"measurement": "Number of participants with ≥4 additional reliever puffs vs baseline on 2 consecutive days", "setting": "[2]; 400 mg BID, N = 32", "value": 2, "unit": "participants"}, {"measurement": "Number of participants with ≥5 additional reliever puffs vs baseline on 2 consecutive days", "setting": "[2]; 400 mg BID, N = 32", "value": 2, "unit": "participants"}, {"measurement": "Participants with ≥2 additional reliever puffs vs baseline on 2 consecutive days, figure in parentheses (share)", "setting": "[2]; 400 mg BID, N = 32", "value": 18.8}, {"measurement": "Participants with ≥3 additional reliever puffs vs baseline on 2 consecutive days, figure in parentheses (share)", "setting": "[2]; 400 mg BID, N = 32", "value": 9.4}, {"measurement": "Participants with ≥4 additional reliever puffs vs baseline on 2 consecutive days, figure in parentheses (share)", "setting": "[2]; 400 mg BID, N = 32", "value": 6.3}, {"measurement": "Participants with ≥5 additional reliever puffs vs baseline on 2 consecutive days, figure in parentheses (share)", "setting": "[2]; 400 mg BID, N = 32", "value": 6.3}, {"measurement": "Number of participants with ≥2 additional reliever puffs vs baseline on 2 consecutive days", "setting": "[2]; 400 mg TID, N = 64", "value": 11, "unit": "participants"}, {"measurement": "Number of participants with ≥3 additional reliever puffs vs baseline on 2 consecutive days", "setting": "[2]; 400 mg TID, N = 64", "value": 4, "unit": "participants"}, {"measurement": "Number of participants with ≥4 additional reliever puffs vs baseline on 2 consecutive days", "setting": "[2]; 400 mg TID, N = 64", "value": 3, "unit": "participants"}, {"measurement": "Number of participants with ≥5 additional reliever puffs vs baseline on 2 consecutive days", "setting": "[2]; 400 mg TID, N = 64", "value": 1, "unit": "participants"}, {"measurement": "Participants with ≥2 additional reliever puffs vs baseline on 2 consecutive days, figure in parentheses (share)", "setting": "[2]; 400 mg TID, N = 64", "value": 17.2}, {"measurement": "Participants with ≥3 additional reliever puffs vs baseline on 2 consecutive days, figure in parentheses (share)", "setting": "[2]; 400 mg TID, N = 64", "value": 6.3}, {"measurement": "Participants with ≥4 additional reliever puffs vs baseline on 2 consecutive days, figure in parentheses (share)", "setting": "[2]; 400 mg TID, N = 64", "value": 4.7}, {"measurement": "Participants with ≥5 additional reliever puffs vs baseline on 2 consecutive days, figure in parentheses (share)", "setting": "[2]; 400 mg TID, N = 64", "value": 1.6}, {"measurement": "number of participants with ≥2 to 5 additional reliever puffs compared to baseline", "setting": "[2]; both cohorts, vs. placebo arms, 12-week treatment", "value": "lower in the rilzabrutinib arms compared to the placebo arms"}]}
